For 26 compounds, EC50 results are on record in patent publication US10112911B2, “Substituted cyanoguanidines as oral anti-virals” (Abbvie Inc, priority 2012, dated 2018).

For the test, the system named is RSV (Group A, Long Strain). Put plainly: Cytopathetic effect (CPE) protection antiviral assay, MTT readout. The class given is cell-based. The following applies: human respiratory syncytial virus, HEp-2, 96 h, HEp-2 cells, 0.2 MOI RSV, 4 days incubation, protection from CPE (Table 1); read-out: RSV EC50. Here is the method: HEp-2 cells and RSV (Group A, Long Strain) were obtained from the American Type Culture Collection (Manassas, Va.).
A cytopathetic effect (CPE) protection assay was performed to determine the ability of a compound to protect the cells from viral infection and thus the CPE induced by viral infection. 96-Well plates were first seeded with […] per well in Dulbecco's modified Eagle's medium (DMEM) containing 10% fetal bovine serum (FBS). One day after the cells were seeded, they were preincubated with serial dilutions of compounds prepared in 100 μL assay medium (DMEM mixed with F12 medium at a 1:1 ratio, supplemented with 2% FBS and 1 mM sodium pyruvate) for 1 hour at 37° C. 100 μL of assay medium containing 0.2 multiplicity of infection (MOI) of RSV was then added to each well of cells. In addition to wells containing infected cells incubated with compounds, each plate also contained replicates of two kinds of controls: (1) Virus control contained cells infected with 0.2 MOI of RSV in assay medium, (2) Uninfected cell control contained cells incubated with assay medium only. After 4 days of incubation at 37° C., the viability of cells was assessed using MTT (Thiazolyl blue tetrazolium bromide, Sigma). A stock solution of MTT, at a concentration of 4 mg/mL in phosphate-buffered saline, was added to all wells at 25 μL per well. Plates were further incubated for 4 hours, and each well was then treated with 50 μL of a solution containing 20% sodium dodecyl sulfate (SDS) and 0.02 N HCl. After an overnight incubation, the plates were measured on a BioTek® microtiter plate reader at wavelengths of 570 nm and 650 nm. The MTT detection is based on the fact that viable (uninfected) cells can reduce the tetrazolium salts into colored formazan products, which can then be quantitated by spectrometry. Based on the spectrometric absorbance of each sample, the percent of protection from CPE, which is an indicator of protection from viral infection, can be calculated for each compound and the 50% effective concentrations (EC50) can be calculated using a nonlinear regression curve fitting equation provided by the GraphPad Prism® 4 software.
Compounds were tested to determine both their antiviral and toxicity to determine their therapeutic window. Determination of the EC50 and TD50 of these active compounds were repeated one additional time to confirm the window.
Consider `CC(C)CC1CN(c2cnc3ccccc3n2)CCN1/C(=N\C#N)Nc1cccc(F)c1` (centres unmarked) [Example 1.40, N′-cyano-N-(3-fluorophenyl)-2-isobutyl-4-(quinoxalin-2-yl)piperazine-1-carboximidamide], for which the 50% effective concentration (EC50) was over 10 µM.
For `CC(C)CC1CN(c2cnc3ccccc3n2)CCN1/C(=N\C#N)Nc1ccccc1Cl` (centres unmarked) [Example 1.41, N-(2-chlorophenyl)-N′-cyano-2-isobutyl-4-(quinoxalin-2-yl)piperazine-1-carboximidamide], the EC50 was 1.22 µM.
`Cc1ccccc1N/C(=N/C#N)N1CCN(c2cnc3ccccc3n2)CC1C` (centres unmarked) [Example 1.42, N′-cyano-2-methyl-N-(2-methylphenyl)-4-(quinoxalin-2-yl)piperazine-1-carboximidamide]: the 50% effective concentration (EC50) is over 10 µM.
The figure for `Cc1ccccc1N/C(=N/C#N)N1CCN(c2cnc3ccccc3n2)CC12CCC2` [Example 1.43, N′-cyano-N-(2-methylphenyl)-8-(quinoxalin-2-yl)-5,8-diazaspiro[3.5]nonane-5-carboximidamide] is over 10 µM.
As to `Cc1ccccc1N/C(=N/C#N)N1CCN(c2cnc3ccccc3n2)CC12CC2` [Example 1.45, N′-cyano-N-(2-methylphenyl)-7-(quinoxalin-2-yl)-4,7-diazaspiro[2.5]octane-4-carboximidamide], the concentration giving a half-maximal response (EC50) was over 10 µM.
With `Cc1ccccc1N/C(=N/C#N)N1CCN(c2cnc3ccccc3n2)CC1C(C)(C)C` (centres unmarked) [Example 1.46, 2-tert-butyl-N′-cyano-N-(2-methylphenyl)-4-(quinoxalin-2-yl)piperazine-1-carboximidamide], the EC50 is over 10 µM.
Consider `CCC(C)C1CN(c2cnc3ccccc3n2)CCN1/C(=N\C#N)Nc1ccccc1C` (centres unmarked) [Example 1.47, 2-sec-butyl-N′-cyano-N-(2-methylphenyl)-4-(quinoxalin-2-yl)piperazine-1-carboximidamide], for which the EC50 was over 1.38 µM.
In the case of `Cc1ccccc1N/C(=N/C#N)N1CCN(c2cnc3ccccc3n2)CC1C1CCCCC1` (centres unmarked) [Example 1.48, N′-cyano-2-cyclohexyl-N-(2-methylphenyl)-4-(quinoxalin-2-yl)piperazine-1-carboximidamide], the EC50 came to 1.34 µM.
In the case of `Cc1ccccc1N/C(=N/C#N)N1CCN(c2cnc3ccccc3n2)CC1CC1CCCCC1` (centres unmarked) [Example 1.49, N′-cyano-2-(cyclohexylmethyl)-N-(2-methylphenyl)-4-(quinoxalin-2-yl)piperazine-1-carboximidamide], the concentration for a half-maximal effect (EC50) was over 3.2 µM.
The figure for `Cc1cc2ncc(N3CCN(/C(=N\C#N)Nc4ccccc4C)C(C(C)C)C3)nc2cc1C` (centres unmarked) [Example 1.50, N′-cyano-4-(6,7-dimethylquinoxalin-2-yl)-2-isopropyl-N-(2-methylphenyl)piperazine-1-carboximidamide] is over 3.2 µM; for `Cc1ccccc1N/C(=N/C#N)N1CCN(c2cnc3cc(F)c(F)cc3n2)CC1C(C)C` (centres unmarked) [Example 1.51, N′-cyano-4-(6,7-difluoroquinoxalin-2-yl)-2-isopropyl-N-(2-methylphenyl)piperazine-1-carboximidamide] it is 0.69 µM; for `Cc1ccccc1N/C(=N/C#N)N1CCN(c2nc3ccccc3nc2C)CC1C(C)C` (centres unmarked) [Example 1.52, N′-cyano-2-isopropyl-N-(2-methylphenyl)-4-(3-methylquinoxalin-2-yl)piperazine-1-carboximidamide] it is over 10 µM.
On to `Cc1ccccc1N/C(=N/C#N)N1CCN(c2nc3ccccc3nc2C(F)(F)F)CC1C(C)C` (centres unmarked) [Example 1.53, N′-cyano-2-isopropyl-N-(2-methylphenyl)-4-[3-(trifluoromethyl)quinoxalin-2-yl]piperazine-1-carboximidamide], for which the EC50 is over 10 µM.
Take `Cc1ccc2ncc(N3CCN(/C(=N\C#N)Nc4ccccc4C)C(C(C)C)C3)nc2c1` (centres unmarked) [Example 1.56, N′-cyano-2-isopropyl-N-(2-methylphenyl)-4-(7-methylquinoxalin-2-yl)piperazine-1-carboximidamide]: the concentration for a half-maximal effect (EC50) amounted to 1.6 µM.
The value for `Cc1ccccc1N/C(=N/C#N)N1CCN(c2cnc3cc(C(F)(F)F)ccc3n2)CC1C(C)C` (centres unmarked) [Example 1.57, N′-cyano-2-isopropyl-N-(2-methylphenyl)-4-[6-(trifluoromethyl)quinoxalin-2-yl]piperazine-1-carboximidamide] was 0.29 µM; that for `Cc1ccccc1N/C(=N/C#N)N1CCN(c2cnc3cc(Cl)c(Cl)cc3n2)CC1C(C)C` (centres unmarked) [Example 1.58, N′-cyano-4-(6,7-dichloroquinoxalin-2-yl)-2-isopropyl-N-(2-methylphenyl)piperazine-1-carboximidamide] was over 3.2 µM; that for `Cc1ccccc1N/C(=N/C#N)N1CCN(c2cnc3cccc(C(F)(F)F)c3n2)CC1C(C)C` (centres unmarked) [Example 1.59, N′-cyano-2-isopropyl-N-(2-methylphenyl)-4-[8-(trifluoromethyl)quinoxalin-2-yl]piperazine-1-carboximidamide] was over 3.2 µM.
For the compound `Cc1ccccc1N/C(=N/C#N)N1CCN(c2cnc3ccc(F)cc3n2)CC1C(C)C` (centres unmarked) [Example 1.60, N′-cyano-4-(7-fluoroquinoxalin-2-yl)-2-isopropyl-N-(2-methylphenyl)piperazine-1-carboximidamide], the EC50 worked out at 1.05 µM.
The value for `Cc1ccccc1N/C(=N/C#N)N1CCN(c2ccc3ccccc3n2)CC1C(C)C` (centres unmarked) [Example 1.61, N′-cyano-2-isopropyl-N-(2-methylphenyl)-4-(quinolin-2-yl)piperazine-1-carboximidamide] was over 6.6 µM; that for `Cc1ccccc1N/C(=N/C#N)N1CCN(c2ncc3ccccc3n2)CC1C(C)C` (centres unmarked) [Example 1.62, N′-cyano-2-isopropyl-N-(2-methylphenyl)-4-(quinazolin-2-yl)piperazine-1-carboximidamide] was over 32 µM.
With `Cc1ccccc1NC(=NC#N)N1CCN(c2cncc(N3CCOCC3)n2)CC1C(C)C` (centres unmarked) [Example 1.63, N′-cyano-2-isopropyl-N-(2-methylphenyl)-4-[6-(morpholin-4-yl)pyrazin-2-yl]piperazine-1-carboximidamide], the EC50 was over 10 µM.
`Cc1ccccc1NC(=NC#N)N1CCN(c2nc(C)c(C)c(NC3CCCCC3)n2)CC1C(C)C` (centres unmarked) [Example 1.64, N′-cyano-4-[4-(cyclohexylamino)-5,6-dimethylpyrimidin-2-yl]-2-isopropyl-N-(2-methylphenyl)piperazine-1-carboximidamide]: the 50% effective concentration (EC50) was over 10 µM.
As to `Cc1ccccc1NC(=NC#N)N1CCN(c2ccc3nccnc3n2)CC1C(C)C` (centres unmarked) [Example 1.65, N′-cyano-2-isopropyl-N-(2-methylphenyl)-4-(pyrido[2,3-b]pyrazin-6-yl)piperazine-1-carboximidamide], the EC50 was 5.9 µM.
As for `Cc1ccccc1NC(=NC#N)N1CCN(c2ccc3cccnc3n2)CC1C(C)C` (centres unmarked) [Example 1.66, N′-cyano-2-isopropyl-N-(2-methylphenyl)-4-(1,8-naphthyridin-2-yl)piperazine-1-carboximidamide], the concentration for a half-maximal effect (EC50) came to 1.5 µM.
Take `Cc1ccccc1NC(=NC#N)N1CCN(c2cnc3cc(F)ccc3n2)C[C@@H]1C(C)C` [Example 1.67, (2S)—N′-cyano-4-(6-fluoroquinoxalin-2-yl)-2-isopropyl-N-(2-methylphenyl)piperazine-1-carboximidamide]: the EC50 amounted to 0.36 µM.
For `Cc1ccc2ccc(N3CCN(C(=NC#N)Nc4ccccc4C)C(C(C)C)C3)nc2n1` (centres unmarked) [Example 1.68, N′-cyano-2-isopropyl-4-(7-methyl-1,8-naphthyridin-2-yl)-N-(2-methylphenyl)piperazine-1-carboximidamide], the EC50 was over 10 µM.

In general, EC50 refers to the concentration needed to bring the measured effect to its halfway point.
